From patent publication US20240360194A1, “New Peptides as Potent and Selective GIP Receptor Agonists” (Sanofi, priority 2021, published 2024)
In brackets after ≈: the same amount, converted by molar mass. Numbered stars: 1 amine (or outer) side, 2 acyl side, 3 side chain; on linkers, the order of the positions; unused ones are H or OH. Square brackets hold non-standard residues; d marks the D form. Side chains are listed from the residue outwards. Peptide text beside a SMILES is read from it. * marks the point of attachment. C18 diacid = O=C(O)CCCCCCCCCCCCCCCCC(=O)*; γGlu = O=C(O)[C@H](CCC(=O)[*:2])N[*:1]; AEEA = NCCOCCOCC(=O)O; Aib = CC(C)(N)C(=O)O

Columns and labels:
[1] = target: T1, human GLP-1 receptor (hGLP-1R) (Homo sapiens, UniProt P43220); test: In vitro cellular cAMP assay for GLP-1 receptor efficacy (HEK-293 cell line over-expressing receptor); type: cell-based; conditions: HEK-293, 0.1% BSA
[2] = Pharmacokinetic evaluation in rats; type: in vivo; conditions: male, SD, rat, in vivo
Description: Compounds were administered in a suitable buffer system, e.g. PBS buffer solution at pH7.4 or DPBS solution at concentrations of 0.05, 0.1, 0.5 or 1 mg/ml depending on dose, species and administration volume. Male SD rats were dosed 0.25 mg/kg, 0.5 mg/kg or 1 mg/kg intravenously (i.v.) or subcutaneously (s.c.). Blood samples were collected after 0.08, 0.25, 0.5, 1, 2, 4, 8, 24, 32, and 48 h post i.v. application and 0.25, 0.5, 1, 2, 4, 8, 24, 32, and 48 h post s.c. application, respectively. Plasma samples were analysed after protein precipitation via liquid chromatography mass spectrometry (LC/MS). PK parameters and half-life were calculated using Phoenix-WinNonlin 8.1 using a non-compartmental model and linear trapezoidal interpolation calculation. Pharmacokinetic profiles were determined as described in Methods.

[3] = Solubility assessment (UHPLC-UV of supernatant, target 10 mg/ml); type: physicochemical; conditions: for solubility at 24 h: pH 7.4, Soluble amount
Procedure, shortened: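 Peptides at 10 mg/ml (purity-corrected) in 100 mM phosphate pH 7.4, optionally with 2.7 mg/ml m-cresol; gentle agitation 1 h, then 5° C. overnight (24 h). Supernatant after 15 min centrifugation at 2500 RCF quantified by UHPLC-UV, with sequence-based extinction coefficients.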

[4] = Chemical stability assessment (UHPLC-UV purity loss on storage in solution); type: physicochemical; conditions: Chemical stability buffer system A: 20 mM phosphate buffer pH 7.4; ~300 μM
Description: Purity of a peptide batch was determined through UHPLC/MS prior to chemical stability measurement. The target concentration was 300 μM pure compound. Solutions from solid samples were prepared in the following buffer systems with a concentration of ˜300 μM compound based on the previously determined % purity: • Chemical stability buffer system A) 20 mM phosphate buffer pH 7.4, • Chemical stability buffer system B) 8 mM phosphate buffer pH 7.4, 14 mg/ml propylene glycol, 5.5 mg/ml phenol • Chemical stability buffer system C) 100 mM phosphate buffer pH 7.4, 2.7 mg/ml m-cresol
Prepared solutions were filtered through […] pore size and filled into sterilized glass containers under laminar flow conditions.
Glass containers were stored for 28 days at 5 and 40° C. After this time, the samples were centrifuged for 15 min at 2500 RCF. Then 1.5 μl of the undiluted supernatant were analysed with UHPLC-UV.
The chemical stability was rated through the relative loss of purity calculated by the equation: […]
The purity is calculated as
The analytical methods used were Analytical UHPLC Method B or C.
Peptide samples were prepared in Chemical stability buffer system A or B and stability was assessed as described in Methods.

[5] = target: T1, human GLP-1 receptor (hGLP-1R); test: Binding assay, displacement of [125I]GLP-1 from HEK-293 membranes over-expressing GLP-1R (SPA); conditions: [125I]GLP-1 displacement
Procedure, shortened: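 Membranes from HEK-293 cells over-expressing human GIPR or GLP-1R, isolated by homogenising, sonicating and ultracentrifuging at 100000×g into HEPES/EDTA/NaCl buffer with protease inhibitors, were used for binding.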

T1 sequence (P43220 24-463): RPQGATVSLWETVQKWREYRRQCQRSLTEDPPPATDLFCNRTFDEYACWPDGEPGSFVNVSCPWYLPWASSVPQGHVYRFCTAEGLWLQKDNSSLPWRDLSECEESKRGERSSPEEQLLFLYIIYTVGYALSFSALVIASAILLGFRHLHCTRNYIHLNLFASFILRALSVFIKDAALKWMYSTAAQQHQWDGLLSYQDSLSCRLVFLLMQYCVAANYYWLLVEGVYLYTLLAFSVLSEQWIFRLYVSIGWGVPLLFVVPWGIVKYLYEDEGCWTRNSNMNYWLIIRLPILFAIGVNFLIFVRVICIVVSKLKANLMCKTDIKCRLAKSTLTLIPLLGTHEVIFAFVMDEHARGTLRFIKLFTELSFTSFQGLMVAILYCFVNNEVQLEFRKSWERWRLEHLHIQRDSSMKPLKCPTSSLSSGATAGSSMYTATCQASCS

## CC[C@H](C)[C@H](NC(=O)[C@H](Cc1ccccc1)NC(=O)[C@H](CCC(=O)O)NC(=O)[C@H](CCC(=O)O)NC(=O)[C@H](CCC(N)=O)NC(=O)[C@H](Cc1c[nH]cn1)NC(=O)[C@@H](NC(=O)[C@H](CCCNC(=N)N)NC(=O)[C@H](CC(=O)O)NC(=O)[C@H](CCCCNC(=O)COCCOCCNC(=O)COCCOCCNC(=O)CC[C@H](NC(=O)CCCCCCCCCCCCCCCCC(=O)O)C(=O)O)NC(=O)C(C)(C)NC(=O)[C@@H](NC(=O)[C@H](CO)NC(=O)[C@H](CC(C)C)NC(=O)[C@H](CC(=O)O)NC(=O)[C@H](CO)NC(=O)[C@@H](NC(=O)[C@H](Cc1ccccc1)NC(=O)[C@@H](NC(=O)CNC(=O)[C@H](CCC(=O)O)NC(=O)C(C)(C)NC(=O)[C@@H](N)Cc1ccc(O)cc1)[C@@H](C)O)[C@@H](C)CC)[C@@H](C)CC)[C@@H](C)CC)C(=O)N[C@@H](CCC(N)=O)C(=O)N[C@@H](Cc1c[nH]c2ccccc12)C(=O)N[C@@H](CC(C)C)C(=O)N[C@@H](CC(C)C)C(=O)N[C@@H](C)C(=O)N[C@@H](CCC(N)=O)C(=O)NCC(=O)N1CCC[C@H]1C(=O)N[C@@H](CO)C(=O)N[C@@H](CO)C(=O)NCC(=O)N[C@@H](C)C(=O)N1CCC[C@H]1C(=O)N1CCC[C@H]1C(=O)N1CCC[C@H]1C(=O)N[C@@H](CO)C(N)=O [SEQ ID NO: 35, H2N-Y-Aib-E-G-T-F-I-S-D-L-S-I-Aib-K[{AEEA}2-gGlu-C18OH]-DRIHQEEFIQWLLAQGPSSGAPPPS-NH2] (H-Y[Aib]EGTFISDLSI[Aib]K([AEEA-AEEA-γGlu-C18 diacid])DRIHQEEFIQWLLAQGPSSGAPPPS-NH2)
[1]
  EC50: > 10 nM
[2]; iv, 0.25 mg/kg
  AUC(0-t): 41600 ng·h/mL
  Cmax: 5380 ng/mL
  clearance: 5.51 mL/h/kg
  half-life: 14.5 h
[2]; sc, 0.5 mg/kg
  AUC(0-t): 49900 ng·h/mL
  Cmax: 2010 ng/mL
  F: 73%
  half-life: 14.3 h
[3]; 24 h, pH 7.4
  Soluble amount: >9.7 mg/mL
[3]
  solubility at 24 h: > 9500 µg/mL
[4]
  Relative purity loss over 28 days at 40° C.: 8.3%
[5]
  IC50: > 100 nM

## CC[C@H](C)[C@H](NC(=O)[C@H](CCCNC(=N)N)NC(=O)[C@H](CC(=O)O)NC(=O)[C@H](CC(C)C)NC(=O)C(C)(C)NC(=O)[C@@H](NC(=O)[C@H](CO)NC(=O)[C@H](CC(C)C)NC(=O)[C@H](CC(=O)O)NC(=O)[C@H](CO)NC(=O)[C@@H](NC(=O)[C@H](Cc1ccccc1)NC(=O)[C@@H](NC(=O)CNC(=O)[C@H](CCC(=O)O)NC(=O)C(C)(C)NC(=O)[C@@H](N)Cc1ccc(O)cc1)[C@@H](C)O)[C@@H](C)CC)[C@@H](C)CC)C(=O)N[C@@H](CCCCNC(=O)COCCOCCNC(=O)COCCOCCNC(=O)CC[C@H](NC(=O)CCCCCCCCCCCCCCCCC(=O)O)C(=O)O)C(=O)N[C@@H](CCC(N)=O)C(=O)NC(C)(C)C(=O)N[C@@H](CCC(=O)O)C(=O)N[C@@H](Cc1ccccc1)C(=O)N[C@H](C(=O)N[C@@H](CCC(=O)O)C(=O)N[C@@H](Cc1c[nH]c2ccccc12)C(=O)N[C@@H](CC(C)C)C(=O)N[C@@H](CC(C)C)C(=O)N[C@@H](C)C(=O)N[C@@H](CCC(N)=O)C(=O)NCC(=O)N1CCC[C@H]1C(=O)N[C@@H](CO)C(=O)N[C@@H](CO)C(=O)NCC(=O)N[C@@H](C)C(=O)N1CCC[C@H]1C(=O)N1CCC[C@H]1C(=O)N1CCC[C@H]1C(=O)N[C@@H](CO)C(N)=O)[C@@H](C)CC [SEQ ID NO: 37, H2N-Y-Aib-E-G-T-F-I-S-D-L-S-I-Aib-L-D-R-I-K[{AEEA}2-gGlu-C18OH]-Q-Aib-E-F-I-E-W-L-L-A-Q-G-P-S-S-G-A-P-P-P-S-NH2] (H-Y[Aib]EGTFISDLSI[Aib]LDRIK([AEEA-AEEA-γGlu-C18 diacid])Q[Aib]EFIEWLLAQGPSSGAPPPS-NH2)
[1]
  EC50: > 10 nM
[3]
  solubility at 24 h: 8600 µg/mL (≈ 1740 µM)
[4]
  Relative purity loss over 28 days at 40° C.: 5.3%
